# Measured values from publication PMC3108859 (Toxicology and applied pharmacology, 2009).
# “Also recorded” adds a separate entry of the source.
# Experiments:
# [1] = system: rat hepatocyte-Kupffer cell co-culture; conditions: ref Tukov et al., 2006; cited from earlier work
# [2] = system: primary human hepatocytes; assay: Quantitative sub-lethal hepatotoxicity imaging assays; assay type: cell-based; conditions: absence of cytokines, 24 or 48 hours
# [3] = system: primary human hepatocytes; assay type: cell-based; conditions: no cytokines, 24 hr, doses less than each drug's own 100*Cmax
# [4] = system: primary human hepatocytes; assay type: cell-based; conditions: 24 hours post-treatment
Compound,"drug-induced sub-lethal hepatocyte injuries (lipid content, ROS, MtMP, GSH depletion) [2]",cytokine synergy effects by factorial analysis of caspase 3/7 activity [4],other results
CN(C)CCCN1c2ccccc2Sc2ccc(Cl)cc21 [chlorpromazine],–,–,synergistic induction of hepatocellular death following LPS treatment [1]: synergistic induction of hepatocellular death following LPS treatment
CC[C@H]1OC(=O)[C@H](C)[C@@H](O[C@H]2C[C@@](C)(OC)[C@@H](O)[C@H](C)O2)[C@H](C)[C@@H](O[C@@H]2O[C@H](C)C[C@H](N(C)C)[C@H]2O)[C@](C)(OC)C[C@@H](C)C(=O)[C@H](C)[C@@H](O)[C@]1(C)O [clarithromycin],numerous sub-lethal hepatotoxicities,–,–
CCc1nn(CCCN2CCN(c3cccc(Cl)c3)CC2)c(=O)n1CCOc1ccccc1 [nefazodone],numerous sub-lethal hepatotoxicities,–,–
C=C[C@H]1C[N@@]2CC[C@H]1C[C@H]2[C@H](O)c1ccnc2ccc(OC)cc12 [quinine],–,–,drug-only hepatotoxicity (greater than two-fold increase in LDH release) [3]: induced significant drug-only hepatotoxicity
CC[C@H]1OC(=O)[C@H](C)C(=O)[C@H](C)[C@@H](O[C@@H]2O[C@H](C)C[C@H](N(C)C)[C@H]2O)[C@](C)(OC)C[C@@H](C)C(=O)[C@H](C)[C@H]2N(CCCCn3cnc(-c4cccnc4)c3)C(=O)O[C@]12C [telithromycin],"only sub-lethal injury induced by both telithromycin and trovafloxacin that was statistically significant was MtMP depletion; also recorded: induced only one type of sub-lethal injury, mitochondrial membrane potential depletion","evident, in decreasing magnitude, for LPS and IL-1α but not other treatment variables",–
N[C@@H]1[C@H]2CN(c3nc4c(cc3F)c(=O)c(C(=O)O)cn4-c3ccc(F)cc3F)C[C@@H]12 [trovafloxacin],"only sub-lethal injury induced by both telithromycin and trovafloxacin that was statistically significant was MtMP depletion; also recorded: induced only one type of sub-lethal injury, mitochondrial membrane potential depletion","evident, in decreasing magnitude, for LPS and IL-1α but not other treatment variables",–
